Assay: Competitive slurry study (Form I vs Form II, XRPD of wet cake)
Format: physicochemical
Conditions: for XRPD Pattern (wet cake): 800 rpm
Protocol: XRPD analyses were performed with techniques and equipments known in the art with Cu K-alpha radiation.
Competitive slurry experiments were performed at 25° C. and 50° C. Saturated solutions of Form I in ACN and acetone at 25° C. and 50° C. were prepared. About 15 mg of Form I and Form II were weighted into the solutions respectively, and the suspensions were slurried for 1 or 3 days at 800 rpm.

| Conversion of form mixture in slurry, as determined by XRPD (25 °C and 50 °C, ACN and acetone, slurried 1 or 3 days) | XRPD Pattern (wet cake) (ACN, 25 °C, slurry time 1 day) | XRPD Pattern (wet cake) (ACN, 25 °C, slurry time 3 days) | XRPD Pattern (wet cake) (ACN, 50 °C, slurry time 1 day) | XRPD Pattern (wet cake) (Acetone, 25 °C, slurry time 1 day) | XRPD Pattern (wet cake) (Acetone, 50 °C, slurry time 1 day) | XRPD Pattern (wet cake) (Acetone, 50 °C, slurry time 3 days) | Relative thermodynamic stability of polymorphic forms (versus Form I, at a temperature of 50 °C or below) | SMILES |
| --- | --- | --- | --- | --- | --- | --- | --- | --- |
| completely converted to Form II | Form I + Form II | Form II | Form II | Form II | Form I + Form II | Form II |  | COC1CCN(c2ncc(OC/C(=C/F)CN)cn2)CC1.Cc1ccc(S(=O)(=O)O)cc1 [Form I + Form II] |
|  |  |  |  |  |  |  | more thermodynamically stable | COC1CCN(c2ncc(OC/C(=C/F)CN)cn2)CC1.Cc1ccc(S(=O)(=O)O)cc1 [Form II, (2E)-3-fluoro-2-({[2-(4-methoxypiperidin-1-yl)pyrimidin-5-yl]oxy}methyl)prop-2-en-1-aminium 4-methylbenzenesulfonate] |

From patent publication US11820754B2, “Polymorphs of an SSAO inhibitor” (Eli Lilly and Company, priority 2020, dated 2023)
